Measured values as given in patent US7928137B2, “Meta-benzamidine derivatives as serine protease inhibitors” (Tularik Limited, priority 1997, dated 2011).

How the values were obtained:
plasma [1] = experiment: Kaolin Activated Partial Thromboplastin Time Test (APTT); type: biochemical; conditions: 37°
Experimental: Kaolin Activated Partial Thromboplastin Time Test Protocol
(§1) Venous blood was collected into 3.2% (0.109 m) trisodium citrate vacutainer tubes at 1 volume of anticoagulant to nine volumes of blood.
(§2) The blood cells were separated by centrifugation at 700 g for ten minutes to yield plasma, which was frozen at […] until required.
(§3) To perform the test, 100 μl of plasma was pipetted into in a glass test tube, 1 μl of test compound in DMSO was added, and allowed to warm to 37° over two minutes.
100 μl of APTT reagent resuspended in Owren's buffer (Thrombosis Reference Centre University of Manchester, withington Hospital, Manchester) was added, mixed thoroughly, and 100 μl of prewarmed kaolin suspension in Owren's buffer added.
This mixture was incubated for ten minutes at 37°, with regular gentle mixing by tilting through a 90° angle, three times sequentially at one minute intervals to maintain the kaolin in suspension.
After ten minutes 100 μl of 25 mM calcium chloride solution was added, the suspension redispersed by mixing as above and the time to clot formation recorded.
(§4) Data from a series of observations and test compound concentrations are analysed by a SAS statistical analysis program and a CT2 (Concentration required to double clotting time) for each compound is generated.

plasma [2] = experiment: Partial Thromboplastin Time Test (PT, tissue thromboplastin reagent); type: biochemical; conditions: Manchester (tissue thromboplasin) reagent, 37°
Experimental: Partial Thromboplastin Time Test Protocol
as §1, §2, §3
100 μl of warm (37°) Manchester (tissue thromboplasin) reagent (Helena Biosciences, UK) was added, allowed to equilibrate for sixty seconds. 100 μl of warm (37°) 25 mM calcium chloride solution was added to initiate clotting.
The test tube was tilted three times through a 90° angle every five seconds to mix the reagents and the time to clot formation recorded.
as §4

thrombin = thrombin (Homo sapiens, UniProt P00734); experiment: Enzyme inhibition assay, thrombin (chromogenic substrate pefachrome-TH); conditions: for thrombin pKi: room temperature, 0.1M phosphate buffer, pH7.4
trypsin = trypsin (Homo sapiens, UniProt P07477); experiment: Enzyme inhibition assay, trypsin (chromogenic substrate pefachrome-TRY); conditions: for trypsin pKi: room temperature, 0.1M phosphate buffer, pH7.4
human factor Xa = human factor Xa (Homo sapiens, UniProt P00742); experiment: Enzyme inhibition assay, factor Xa (chromogenic substrate pefachrome-FXA); conditions: for FXa pKi: room temperature, 0.1M phosphate buffer, pH7.4
Sequence of human factor Xa (P00742 235-488 limits assumed): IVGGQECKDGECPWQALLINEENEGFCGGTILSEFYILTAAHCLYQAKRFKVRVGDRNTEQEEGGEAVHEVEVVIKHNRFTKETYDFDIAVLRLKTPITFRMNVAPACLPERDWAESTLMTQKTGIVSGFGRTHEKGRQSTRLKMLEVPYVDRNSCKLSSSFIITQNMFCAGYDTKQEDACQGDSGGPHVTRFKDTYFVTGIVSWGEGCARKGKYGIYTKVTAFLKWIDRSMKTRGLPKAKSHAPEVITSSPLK
Sequence of human factor Xa (P00742 41-179 partner limits assumed): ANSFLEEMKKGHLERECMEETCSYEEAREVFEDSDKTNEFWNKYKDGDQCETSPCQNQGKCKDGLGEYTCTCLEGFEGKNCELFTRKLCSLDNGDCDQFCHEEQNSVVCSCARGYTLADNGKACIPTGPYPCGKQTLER

| Ki (thrombin) [nM] | Ki (trypsin) [nM] | Ki (human factor Xa) [nM] | Molecule | APTT CT2 (Concentration required to double clotting time) (plasma [1]) [µM] | PT CT2 (Concentration required to double clotting time) (plasma [2]) [µM] | thrombin pKi (thrombin) | trypsin pKi (trypsin) | FXa pKi (human factor Xa) |
| --- | --- | --- | --- | --- | --- | --- | --- | --- |
| 1020 | 245 | 14.1 | N=C(N)c1ccc(N)c(C(=O)N[C@@H](C(=O)NCC2CCC(CN)CC2)c2ccccc2)c1 (mixture of isomers) [Example 89, 2-Amino-5-amidinobenzoyl-D-phenylglycine-4-amlnomethylcyclohexyl methylamide] |  |  |  |  |  |
| 4790 | 2570 | 97.7 | N=C(N)c1cccc(C(=O)N[C@@H](C(=O)NC2C3CC4CC(C3)CC2C4)c2ccccc2)c1 (stereo partly drawn) [Example 68, 3-Amidino-benzoyl-D-phenylglycine-2adamantylamide] |  | 17 |  |  |  |
| 6920 | 1860 | 269 | C[C@@H](NC(=O)[C@H](NC(=O)c1cccc(C(=N)N)c1)c1ccccc1)c1cccc2ccccc12 [Example 80, 3-Amidino-benzoyl-D-phenylglycine-R-1-(1-naphthyl)ethylamide] |  |  |  |  |  |
| 9120 | 2450 | 10.5 | CC(=N)N1CCC(CCOC(=O)[C@H](NC(=O)c2cccc(C(=N)N)c2)c2ccccc2)CC1 [Example 84, 3-Amidino-benzoyl-D-phenylglycine-2-(N-acetimino-4-piperidinyl) ethyl ester] | 5.8 | 1.9 |  |  |  |
|  | 1290 | 24 | N=C(N)c1cccc(C(=O)N[C@@H](C(=O)OCCC2CCN(C(=N)N)CC2)c2ccccc2)c1 [Example 87, 3-Amidino-benzoyl-D-phenylglycine-2-(N-amidino-4-piperidinyl) ethyl ester] | 14 | 4.2 | 5.10 |  |  |

The remaining lines, values behind:

| Molecule | Ki (thrombin) [nM] | Ki (trypsin) [nM] | Ki (human factor Xa) [nM] | APTT CT2 (Concentration required to double clotting time) (plasma [1]) [µM] | PT CT2 (Concentration required to double clotting time) (plasma [2]) [µM] | thrombin pKi (thrombin) | trypsin pKi (trypsin) | FXa pKi (human factor Xa) |
| --- | --- | --- | --- | --- | --- | --- | --- | --- |
| 3-Amidino-benzoyl-D-phenylglycinyl-D-2-naphthylalanine amide [Example 36] |  |  |  | 9.4 | 9 | 6.24 | 6.16 | 7.12 |
| 3-Amidino-benzoyl-D-phenylglycinyl-D-2-naphthylalaninyl N-methylglycine [Example 32] |  |  |  | 7.4 | 5.6 | 6.09 | 5.65 | 7.39 |
| 3-Amidino-benzoyl-D-phenylglycinyl-D-2-naphthylalaninyl-D-proline [Example 33] |  |  |  |  | 7.1 | 6.14 | 6.39 | 7.50 |
| 3-Amidino-benzoyl-D-phenylglycinyl-D-2-naphthylalaninyl-glycine [Example 31] |  |  |  | 3.7 | 3.2 | 6.98 | 5.56 | 6.80 |
| 3-Amidino-benzoyl-D-phenylglycinyl-D-phenylalanine-N-pyrrolidinamide [Example 66] |  |  |  | 4.5 | 4.6 | 6.66 | 6.55 | 6.94 |
| N=C(N)c1cccc(C(=O)NC(C(=O)NCC2CCC(CN)CC2)c2ccc3ccccc3c2)c1 (racemic) [Example 12, 3-Amidino-benzoyl-DL-2-naphthylglycine 4-aminomethylcyclohexyl methylamide] | 5370 | 794 | 407 | 6.5 | 3.4 |  |  |  |
| CC(C)[C@@H](NC(=O)[C@H](NC(=O)c1cccc(C(=N)N)c1)c1ccccc1)C(N)=O [Example 37, 3-Amidino-benzoyl-D-phenylglycinyl-D-valine amide] | 17000 | 1450 | 162 | 36 | 15 |  |  |  |
| N=C(N)c1cccc(C(=O)N[C@@H](C(=O)N2CCC(C(=O)c3ccccc3)CC2)c2ccccc2)c1 [Example 63, 3-Amidino-benzoyl-D-phenylglycine-4-benzoyl piperidinamide] | 1100 | 288 |  |  | 3.7 |  |  |  |
| Cc1ccc(CNC(=O)[C@H](NC(=O)c2cccc(C(=N)N)c2)c2ccccc2)cc1 [Example 64, 3-Amidino-benzoyl-D-phenylglycine-4-methylbenzylamide] |  | 1230 | 87.1 | 7.6 | 8.3 | 5.72 |  |  |
| N=C(N)c1cccc(C(=O)N[C@@H](C(=O)NCc2cccc3ccccc23)c2ccccc2)c1 [Example 65, 3-Amidino-benzoyl-D-phenylglycine-1-naphthylmethylamide] | 1170 | 1620 | 64.6 |  |  |  |  |  |
